Experimental data: paper PMC9344054, “Studies on Chemical Characterization of Ginkgo Amillaria Oral Solution and Its Drug–Drug Interaction With Piceatannol 3′-O-β-D-Glucopyranoside for Injection” (Frontiers in Pharmacology, 2022)

Assay: Identification of metabolites of PG in vivo (plasma, bile, urine, feces)
Set-up: species or system rat
Details: rats
Experimental: Nine Sprague–Dawley (SD) male rats (200 ± 20 g) were purchased from Beijing Vital River Laboratory Animal Technology Co., Ltd. (license number: SCXK (Beijing) 2016-0006).
The plasma samples were the same as in the pharmacokinetic experiment; PGI (9 mg kg^−1) was injected into the tail vein of three rats to collect the bile samples for 0–6 h, and saline (9 mg kg^−1) was injected into the tail vein of three rats to collect the normal bile samples. PGI (9 mg kg^−1) was injected into the tail vein of three rats to collect urine (0–4 h) samples and feces (0–6 h) samples after collecting the blank urine and feces samples. All samples were stored at −80℃ for further analysis.
Plasma samples: 40 μl of plasma samples at different time points were taken and mixed together in a 2 ml centrifuge tube; 1,280 μl of ice acetonitrile was added. The mixture was vortexed for 3 min and centrifuged at 13,200 × g under 4℃ for 10 min. The supernatant was transferred to another centrifuge tube and dried with nitrogen, re-dissolved with 60 μl of 80% methanol-H2O (v/v). For further LC-MS analysis, 3 μl of the supernatant was injected.
Bile samples: 100 μl of bile sample was taken using a 0.22 μm filter, the mixture was vortexed for 3 min, and centrifuged at 13200 × g under 4℃ for 10 min. For further LC-MS analysis, 3 μl of the supernatant was injected.
Fecal samples: 100 mg of the sample was weighed into a 1.5 ml centrifuge tube, 400 μl of ice acetonitrile was added, and the mixture was vortexed for 3 min and centrifuged at 13,200 × g under 4℃ for 10 min. For further LC-MS analysis, 3 μl of the supernatant was injected.
Urine sample: 600 μl of urine sample was taken out, and 2,400 μl of ice acetonitrile was added. The mixture was vortexed for 3 min and centrifuged at 13,200 × g under 4℃ for 10 min. The supernatant was transferred to another centrifuge tube and dried with nitrogen, re-dissolved with 60 μl of 80% methanol-H2O (v/v). For further LC-MS analysis, 3 μl of the supernatant was injected.
An ultrahigh-performance liquid chromatography-mass spectrometer (Waters, United States) was performed for separation and detection. A Waters ACQUITY UPLC HSS T3 column (2.1 × 100 mm, 1.8 μm) was employed at 30℃ with a flow rate of 0.3 ml min^−1. The mobile phase consisted of acetonitrile (B) and water containing 0.1% FA ([…]). The following linear gradient was used: 0–0.5 min: 5–7% B; 0.5–2.5 min: 7–8.8% B; 2.5–5.5 min: 8.8–16.9% B; 5.5–14 min: 16.9–24.7% B; 14–23 min: 24.7–52% B; and 23–30 min: 52–95% B.
DDA was performed using the Q Exactive™ hybrid quadrupole–Orbitrap mass spectrometer both in negative and positive mode. […]

## OC[C@H]1O[C@@H](Oc2cc(/C=C/c3cc(O)cc(O)c3)ccc2O)[C@H](O)[C@@H](O)[C@@H]1O [PG, Piceatannol-3′-O-β-D-glucopyranoside]
  metabolites in fecal samples: No metabolites were detected
PGI 9 mg kg−1 tail vein
  metabolic route of PG in vivo: mainly undergoes a phase II binding reaction mediated by UGT and SULT
PGI 9 mg kg−1 tail vein, bile 0–6 h, all phase II
  number of metabolites identified in bile: five
PGI 9 mg kg−1 tail vein, all phase II metabolites
  number of metabolites identified in plasma: four
